According to article PMC3050433, “The effects of maribavir on the autophosphorylation of ganciclovir resistant mutants of the cytomegalovirus UL97 protein” (Herpesviridae, 2010):
Positions count from the first letter of the chain named.

Tests used:
Format in all cases: biochemical
wild type UL97 = target: T1, wild type UL97 (Human cytomegalovirus, UniProt Q68101); test: UL97 autophosphorylation protein kinase assay, wild type
T1 construct: PCR reaction to generate the full length UL97; honey bee melittin secretion signal (N); made in house; host or cells: Sf21 insect cells, recombinant baculovirus (pMelBac C)
T1 sequence (Q68101 whole entry): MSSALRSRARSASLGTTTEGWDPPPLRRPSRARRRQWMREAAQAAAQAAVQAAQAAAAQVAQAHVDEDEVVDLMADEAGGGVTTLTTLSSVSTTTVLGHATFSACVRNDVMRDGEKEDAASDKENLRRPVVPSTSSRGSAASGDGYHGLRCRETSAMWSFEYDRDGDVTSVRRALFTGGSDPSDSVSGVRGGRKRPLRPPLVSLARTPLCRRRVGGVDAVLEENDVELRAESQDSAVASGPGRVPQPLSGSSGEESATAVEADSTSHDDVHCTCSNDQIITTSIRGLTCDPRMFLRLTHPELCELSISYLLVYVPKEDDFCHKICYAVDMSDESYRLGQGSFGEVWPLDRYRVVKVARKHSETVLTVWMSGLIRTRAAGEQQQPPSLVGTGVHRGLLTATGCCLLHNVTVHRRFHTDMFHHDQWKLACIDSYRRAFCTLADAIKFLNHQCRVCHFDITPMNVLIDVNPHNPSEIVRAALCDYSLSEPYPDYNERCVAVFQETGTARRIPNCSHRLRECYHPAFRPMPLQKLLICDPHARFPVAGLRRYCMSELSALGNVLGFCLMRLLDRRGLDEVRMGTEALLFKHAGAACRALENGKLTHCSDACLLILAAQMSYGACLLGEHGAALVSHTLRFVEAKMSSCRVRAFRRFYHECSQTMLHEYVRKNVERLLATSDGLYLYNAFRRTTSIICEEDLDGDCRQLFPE
Method: (§1) Analysis of the autophosphorylation of wild type and mutant UL97 protein species was performed by a standard protein kinase assay as previously described (46). Briefly, purified protein was added to 2× protein kinase buffer (100 mM Tris HCl, pH9.0, 20 mM MgCl2, 10 μM ATP, 4 mM DTT, 2 M NaCl) and 370 KBq [γ^32P] ATP (Amersham), made up to 20 μl with SDW and incubated at 37°C. The reactions were terminated by the addition of 2× SDS sample buffer followed by boiling for 3 minutes. The amount of radiolabelled phosphate incorporated by autophosphorylation was analysed by SDS-PAGE and measured using the Biorad Mulitanalyst. The protein kinase assays were initially performed for 2 to 60 minutes to determine the maximum rate of phosphate incorporation, all assays were then performed at the maximum rate which equated to 5 minutes.
Enzyme kinetic analysis was performed on the purified wild type and mutant UL97 protein species as above using increasing concentrations of ATP (2 μM to 20 μM). The amount of incorporated radiolabelled phosphate was plotted against the concentration of ATP in a Lineweaver Burke plot to determine the Km for ATP for each UL97 species. The effect of maribavir upon the rate of radiolabelled phosphate incorporation by wild type or mutant UL97 was determined by protein kinase assays at a fixed concentration of maribavir (0.5 μM) as above, or with increasing concentrations of maribavir (0.01 μM to 5.0 μM) to determine the IC50 of maribavir for each UL97 species. In order to determine the nature of the inhibition mediated by maribavir, plots of 1/v vs 1/ATP with increasing concentrations of maribavir were constructed. Competitive inhibition was evident if the family of lines cconverged on the y-axis at 1/Vmax. The change in slope caused by the addition of maribavir was used to calculate the Ki using standard enzyme kinetic equations viz.

UL97 M460I = target: T2, UL97 M460I (Human cytomegalovirus, UniProt Q68101, M460I); test: UL97 autophosphorylation protein kinase assay, M460I
T2 construct: PCR reaction to generate the full length UL97; honey bee melittin secretion signal (N); made in house; host or cells: Sf21 insect cells, recombinant baculovirus (pMelBac C)
T2 sequence (Q68101 1-707 M460I): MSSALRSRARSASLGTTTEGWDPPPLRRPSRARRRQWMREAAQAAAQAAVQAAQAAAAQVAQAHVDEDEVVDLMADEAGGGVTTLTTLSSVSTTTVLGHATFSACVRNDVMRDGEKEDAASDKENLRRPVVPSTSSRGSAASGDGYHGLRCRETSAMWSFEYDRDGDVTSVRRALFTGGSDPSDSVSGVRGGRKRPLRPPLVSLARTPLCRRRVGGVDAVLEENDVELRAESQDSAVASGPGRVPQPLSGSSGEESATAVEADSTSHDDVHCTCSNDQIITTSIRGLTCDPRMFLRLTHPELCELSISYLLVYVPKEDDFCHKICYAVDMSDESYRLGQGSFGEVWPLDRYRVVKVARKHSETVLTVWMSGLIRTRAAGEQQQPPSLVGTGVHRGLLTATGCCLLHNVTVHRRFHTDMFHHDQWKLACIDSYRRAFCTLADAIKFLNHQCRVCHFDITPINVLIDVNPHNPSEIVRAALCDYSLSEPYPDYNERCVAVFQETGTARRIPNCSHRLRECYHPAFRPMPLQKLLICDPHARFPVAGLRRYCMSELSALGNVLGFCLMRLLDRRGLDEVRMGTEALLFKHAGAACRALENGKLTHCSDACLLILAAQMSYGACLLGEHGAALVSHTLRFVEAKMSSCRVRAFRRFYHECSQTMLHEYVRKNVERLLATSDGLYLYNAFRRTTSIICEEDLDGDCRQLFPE
Method: as §1
(§2) Enzyme kinetic analysis was performed on the purified wild type and mutant UL97 protein species as above using increasing concentrations of ATP (2 μM to 20 μM). The amount of incorporated radiolabelled phosphate was plotted against the concentration of ATP in a Lineweaver Burke plot to determine the Km for ATP for each UL97 species. […]

UL97 H520Q = target: T3, UL97 H520Q (Human cytomegalovirus, UniProt Q68101, H520Q); test: UL97 autophosphorylation protein kinase assay, H520Q
T3 construct: PCR reaction to generate the full length UL97; honey bee melittin secretion signal (N); made in house; host or cells: Sf21 insect cells, recombinant baculovirus (pMelBac C)
T3 sequence (Q68101 1-707 H520Q): T2 sequence (Q68101 1-707 M460I) with I460M, H520Q
Method: as §1, §2

Structure (SMILES)	Km (wild type UL97; wild type UL97, ATP 2 μM to 20 μM, 5 minutes) [µM]	Km (UL97 M460I; M460I, read-out: Km for ATP) [µM]	Km (UL97 H520Q; H520Q, read-out: Km for ATP) [µM]	% autophosphorylation Plus Maribavir (wild type UL97; maribavir 0.5 μM, normalised relative to wild type, mean and SD of triplicate) [%]	nature of the inhibition (wild type UL97; wild type UL97, 1/v vs 1/ATP with increasing maribavir)	Ki (wild type UL97; wild type UL97, competitive with ATP (2 μM to 20 μM), Lineweaver Burke plot) [nM]	IC50 (wild type UL97; wild type UL97, increasing concentrations of maribavir) [nM]	IC50 (UL97 M460I; M460I mutant) [nM]	IC50 (UL97 H520Q; H520Q mutant) [nM]
Nc1ncnc2c1ncn2[C@@H]1O[C@H](COP(=O)(O)OP(=O)(O)OP(=O)(O)O)[C@@H](O)[C@H]1O [ATP]	27 ± 2.2	28 ± 2	25 ± 2.4						
CC(C)Nc1nc2cc(Cl)c(Cl)cc2n1[C@H]1O[C@@H](CO)[C@H](O)[C@@H]1O [maribavir, 5,6-dichloro-2-(isopropylamino)-1-beta-L-ribofuranosyl-1H-benzimidazole]				4.5 ± 2.0	competitive inhibitor of ATP	10	34	4.8	33
